The values below come from the supplement of paper PMC11368000.

Each structure is given as a SMILES string.

For the first test, the system named is 20032 (donor line of iPSC-derived cardiomyocytes). Description: POD (EC05) for increase in Ca2+ transient decay-to-rise ratio (QT prolongation) vs vehicle; higher = less potent (higher point of departure). As to conditions: exposure time: 90 min. A digest of the protocol: (§1)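 Ca2+ flux in human iPSC-derived cardiomyocytes from 16 donors was recorded on a FLIPR Tetra for 100 s before and after a 90 min exposure at 37 °C to 0.1, 1, 10 and 100 µM (final, 0.5% DMSO). Donor-specific points of departure came from hierarchical Bayesian Hill fits to vehicle-normalised beat frequency, decay-to-rise ratio or peak frequency. A 5% change served as threshold, except for peak frequency, where it was a 95% loss.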
For the molecule `O=C(O)C(F)(F)C(F)(F)C(F)(F)C(F)(F)C(F)(F)F` [Perfluorohexanoic_acid], the POD vs vehicle was above 100 µM.
As to `O=C(O)C(F)(F)C(F)(F)C(F)(F)C(F)(F)C(F)(F)C(F)(F)C(F)(F)C(F)(F)F` [Perfluorononanoic_acid], the POD vs vehicle was above 100 µM.
In the case of `O=S(=O)(O)C(F)(F)C(F)(F)C(F)(F)C(F)(F)C(F)(F)C(F)(F)C(F)(F)C(F)(F)F` [Perfluorooctanesulfonic_acid], the POD vs vehicle was above 100 µM.
The same measure, in the same setting: the figure for `O=C(O)C(F)(F)C(F)(F)C(F)(F)C(F)(F)C(F)(F)C(F)(F)C(F)(F)F` [Perfluorooctanoic_acid] is above 100 µM; for `O=C(O)C(F)(F)C(F)(F)C(F)(F)C(F)(F)F` [Perfluoropentanoic_acid] it is above 100 µM.
Take `O=C(O)C(F)(F)C(F)(F)F` [Perfluoropropanoic_acid]: the POD vs vehicle was above 100 µM.
In the case of `O=C(O)C(F)(F)C(F)(F)C(F)(F)C(F)(F)C(F)(F)C(F)(F)C(F)(F)C(F)(F)C(F)(F)C(F)(F)F` [Perfluoroundecanoic_acid], the POD vs vehicle was above 100 µM.
Turning to `O=S(=O)([O-])C(F)(F)C(F)(F)C(F)(F)C(F)(F)F.[K+]` [Potassium_perfluorobutanesulfonate], the POD vs vehicle was above 100 µM.

In a further test the test system is 1392 (donor line of iPSC-derived cardiomyocytes). The test is described as above. As to conditions: exposure time: 90 min. Summed up: as §1
As for `O=C(O)C(F)(F)C(F)(F)OC(F)(F)F` [Perfluoro-3-methoxypropanoic_acid], the POD vs vehicle is above 100 µM.
The same measure, in the same setting: the figure for `O=C(O)C(F)(F)C(F)(F)C(F)(F)OC(F)(C(F)(F)F)C(F)(F)F` [Perfluoro-4-isopropoxybutanoic_acid] is above 100 µM; for `O=S(=O)(O)C(F)(F)C(F)(F)C(F)(F)C(F)(F)F` [Perfluorobutanesulfonic_acid] it is above 100 µM.
Regarding `O=C(O)C(F)(F)C(F)(F)C(F)(F)F` [Perfluorobutanoic_acid], the POD vs vehicle was above 100 µM.
The same measure, in the same setting: the figure for `O=C(O)C(F)(F)C(F)(F)C(F)(F)C(F)(F)C(F)(F)C(F)(F)C(F)(F)C(F)(F)C(F)(F)F` [Perfluorodecanoic_acid] is above 100 µM.
For the molecule `O=C(O)C(F)(F)C(F)(F)C(F)(F)C(F)(F)C(F)(F)C(F)(F)F` [Perfluoroheptanoic_acid], the POD vs vehicle was above 100 µM.
Same read-out and setting: the result for `NS(=O)(=O)C(F)(F)C(F)(F)C(F)(F)C(F)(F)C(F)(F)C(F)(F)F` [Perfluorohexanesulfonamide] reads above 100 µM; that for `O=S(=O)(O)C(F)(F)C(F)(F)C(F)(F)C(F)(F)C(F)(F)C(F)(F)F` [Perfluorohexanesulfonic_acid], above 100 µM.
`O=C(O)C(F)(F)C(F)(F)C(F)(F)C(F)(F)C(F)(F)F` [Perfluorohexanoic_acid]: the POD vs vehicle is above 100 µM.
On the same count and under the same terms, the figure for `O=C(O)C(F)(F)C(F)(F)C(F)(F)C(F)(F)C(F)(F)C(F)(F)C(F)(F)C(F)(F)F` [Perfluorononanoic_acid] is above 100 µM; for `O=S(=O)(O)C(F)(F)C(F)(F)C(F)(F)C(F)(F)C(F)(F)C(F)(F)C(F)(F)C(F)(F)F` [Perfluorooctanesulfonic_acid] it is above 100 µM; for `O=C(O)C(F)(F)C(F)(F)C(F)(F)C(F)(F)C(F)(F)C(F)(F)C(F)(F)F` [Perfluorooctanoic_acid] it is above 100 µM.
With `O=C(O)C(F)(F)C(F)(F)C(F)(F)C(F)(F)F` [Perfluoropentanoic_acid], the POD vs vehicle is above 100 µM.
Turning to `O=C(O)C(F)(F)C(F)(F)F` [Perfluoropropanoic_acid], the POD vs vehicle is above 100 µM.
Same read-out and setting: the result for `O=C(O)C(F)(F)C(F)(F)C(F)(F)C(F)(F)C(F)(F)C(F)(F)C(F)(F)C(F)(F)C(F)(F)C(F)(F)F` [Perfluoroundecanoic_acid] reads above 100 µM.
The same measure, in the same setting: the figure for `O=S(=O)([O-])C(F)(F)C(F)(F)C(F)(F)C(F)(F)F.[K+]` [Potassium_perfluorobutanesulfonate] is above 100 µM.

A further test concerns 1083 (donor line of iPSC-derived cardiomyocytes). The description is as above. As to conditions: exposure time: 90 min. A digest of the protocol: as §1
With `O=C(O)C(F)(F)C(F)(F)OC(F)(F)F` [Perfluoro-3-methoxypropanoic_acid], the POD vs vehicle is above 100 µM.
Still for that read-out and setting: the result for `O=C(O)C(F)(F)C(F)(F)C(F)(F)OC(F)(C(F)(F)F)C(F)(F)F` [Perfluoro-4-isopropoxybutanoic_acid] reads above 100 µM; that for `O=S(=O)(O)C(F)(F)C(F)(F)C(F)(F)C(F)(F)F` [Perfluorobutanesulfonic_acid], above 100 µM.
Still for that read-out and setting: the figure for `O=C(O)C(F)(F)C(F)(F)C(F)(F)F` [Perfluorobutanoic_acid] is above 100 µM; for `O=C(O)C(F)(F)C(F)(F)C(F)(F)C(F)(F)C(F)(F)C(F)(F)C(F)(F)C(F)(F)C(F)(F)F` [Perfluorodecanoic_acid] it is above 100 µM.
Same read-out and setting: the figure for `O=C(O)C(F)(F)C(F)(F)C(F)(F)C(F)(F)C(F)(F)C(F)(F)F` [Perfluoroheptanoic_acid] is above 100 µM.
As to `NS(=O)(=O)C(F)(F)C(F)(F)C(F)(F)C(F)(F)C(F)(F)C(F)(F)F` [Perfluorohexanesulfonamide], the POD vs vehicle was 30.8 µM.
Still for that read-out and setting: the result for `O=S(=O)(O)C(F)(F)C(F)(F)C(F)(F)C(F)(F)C(F)(F)C(F)(F)F` [Perfluorohexanesulfonic_acid] reads above 100 µM.
`O=C(O)C(F)(F)C(F)(F)C(F)(F)C(F)(F)C(F)(F)F` [Perfluorohexanoic_acid]: the POD vs vehicle is above 100 µM.
For `O=C(O)C(F)(F)C(F)(F)C(F)(F)C(F)(F)C(F)(F)C(F)(F)C(F)(F)C(F)(F)F` [Perfluorononanoic_acid], the POD vs vehicle is above 100 µM.
Still for that read-out and setting: the result for `O=S(=O)(O)C(F)(F)C(F)(F)C(F)(F)C(F)(F)C(F)(F)C(F)(F)C(F)(F)C(F)(F)F` [Perfluorooctanesulfonic_acid] reads above 100 µM.
For `O=C(O)C(F)(F)C(F)(F)C(F)(F)C(F)(F)C(F)(F)C(F)(F)C(F)(F)F` [Perfluorooctanoic_acid], the POD vs vehicle was above 100 µM.
On to `O=C(O)C(F)(F)C(F)(F)C(F)(F)C(F)(F)F` [Perfluoropentanoic_acid], for which the POD vs vehicle is above 100 µM.
With `O=C(O)C(F)(F)C(F)(F)F` [Perfluoropropanoic_acid], the POD vs vehicle is above 100 µM.
The same measure, in the same setting: the result for `O=C(O)C(F)(F)C(F)(F)C(F)(F)C(F)(F)C(F)(F)C(F)(F)C(F)(F)C(F)(F)C(F)(F)C(F)(F)F` [Perfluoroundecanoic_acid] reads above 100 µM; that for `O=S(=O)([O-])C(F)(F)C(F)(F)C(F)(F)C(F)(F)F.[K+]` [Potassium_perfluorobutanesulfonate], above 100 µM.
